Assay results as given in ChEMBL document CHEMBL5360554, “Optimization of the C2 substituents on the 1,4-bis(arylsulfonamido)naphthalene-N,N'-diacetic acid scaffold for better inhibition of Keap1-Nrf2 protein-protein interaction” (Eur J Med Chem, 2023).
Active and inactive are the calls of the source. The rule behind the calls is not given here.

Tests used:
Keap1/Nrf2 [1] = target: T1, Keap1/Nrf2 (Homo sapiens, UniProt Q14145); test: Inhibition of Keap1-Nrf2 protein-protein interaction (unknown origin) preincubated for 30 mins followed by Terbium labeled anti-His antibody addition for 30 mins prior to fluorescein labeled-9mer Nrf2 peptide addition and measured after 60 mins by TR-FRET assay
[2] = target: T2, Keap1/Nrf2 (Homo sapiens) (UniProt Q16236+Q14145); test: Inhibition of Keap1-Nrf2 protein-protein interaction in human NCM460D cells assessed as increase in NQO1 gene expression at 100 uM by RT-qPCR analysis; assay type: cell-based
[3] = target: T2, Keap1/Nrf2 (Homo sapiens); test: Inhibition of Keap1-Nrf2 protein-protein interaction in human NCM460D cells assessed as increase in GSTM3 gene expression at 100 uM by RT-qPCR analysis; assay type: cell-based
Keap1/Nrf2 [4] = target: T1, Keap1/Nrf2; test: Inhibition of Keap1-Nrf2 protein-protein interaction (unknown origin) incubated for 34 mins by fluorescence polarization assay
[5] = target: T2, Keap1/Nrf2 (Homo sapiens); test: Inhibition of Keap1-Nrf2 protein-protein interaction in human NCM460D cells assessed as increase in HMOX1 gene expression at 100 uM by RT-qPCR analysis; assay type: cell-based
[6] = target: T2, Keap1/Nrf2 (Homo sapiens); test: Inhibition of Keap1-Nrf2 protein-protein interaction in human NCM460D cells assessed as fold increase in HMOX1 gene expression at 100 uM by RT-qPCR analysis; assay type: cell-based
[7] = target: T2, Keap1/Nrf2 (Homo sapiens); test: Inhibition of Keap1-Nrf2 protein-protein interaction in human NCM460D cells assessed as fold increase in NQO1 gene expression at 100 uM by RT-qPCR analysis; assay type: cell-based
[8] = target: T2, Keap1/Nrf2 (Homo sapiens); test: Inhibition of Keap1-Nrf2 protein-protein interaction in human NCM460D cells assessed as fold increase in GSTM3 gene expression at 100 uM by RT-qPCR analysis; assay type: cell-based
[9] = target: T2, Keap1/Nrf2 (Homo sapiens); test: Inhibition of Keap1-Nrf2 protein-protein interaction in human NCM460D cells assessed as fold increase in NQO1 gene expression at 10 uM by RT-qPCR analysis; assay type: cell-based
[10] = target: T2, Keap1/Nrf2 (Homo sapiens); test: Inhibition of Keap1-Nrf2 protein-protein interaction in human NCM460D cells assessed as fold increase in GSTM3 gene expression at 10 uM by RT-qPCR analysis; assay type: cell-based
[11] = target: T2, Keap1/Nrf2 (Homo sapiens); test: Inhibition of Keap1-Nrf2 protein-protein interaction in human NCM460D cells assessed as fold increase in HMOX1 gene expression at 10 uM by RT-qPCR analysis; assay type: cell-based

T2 sequence (Q14145 whole entry, looked up): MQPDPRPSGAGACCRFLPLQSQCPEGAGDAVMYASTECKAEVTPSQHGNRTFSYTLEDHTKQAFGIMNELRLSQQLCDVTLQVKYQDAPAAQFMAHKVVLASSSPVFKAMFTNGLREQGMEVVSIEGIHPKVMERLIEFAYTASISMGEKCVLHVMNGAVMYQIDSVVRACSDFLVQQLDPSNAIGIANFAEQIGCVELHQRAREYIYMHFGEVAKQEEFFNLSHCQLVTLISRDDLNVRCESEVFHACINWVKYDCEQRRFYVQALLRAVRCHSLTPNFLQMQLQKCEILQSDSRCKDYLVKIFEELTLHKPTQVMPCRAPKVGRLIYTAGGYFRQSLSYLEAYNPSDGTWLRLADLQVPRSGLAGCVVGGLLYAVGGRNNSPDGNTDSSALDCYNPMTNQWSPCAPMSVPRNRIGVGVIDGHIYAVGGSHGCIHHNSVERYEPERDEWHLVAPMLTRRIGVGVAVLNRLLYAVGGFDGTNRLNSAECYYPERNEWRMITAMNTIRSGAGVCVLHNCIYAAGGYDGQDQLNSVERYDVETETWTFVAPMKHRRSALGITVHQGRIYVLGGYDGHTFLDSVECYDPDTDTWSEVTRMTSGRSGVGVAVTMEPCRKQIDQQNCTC
T2 sequence (Q16236 whole entry, looked up): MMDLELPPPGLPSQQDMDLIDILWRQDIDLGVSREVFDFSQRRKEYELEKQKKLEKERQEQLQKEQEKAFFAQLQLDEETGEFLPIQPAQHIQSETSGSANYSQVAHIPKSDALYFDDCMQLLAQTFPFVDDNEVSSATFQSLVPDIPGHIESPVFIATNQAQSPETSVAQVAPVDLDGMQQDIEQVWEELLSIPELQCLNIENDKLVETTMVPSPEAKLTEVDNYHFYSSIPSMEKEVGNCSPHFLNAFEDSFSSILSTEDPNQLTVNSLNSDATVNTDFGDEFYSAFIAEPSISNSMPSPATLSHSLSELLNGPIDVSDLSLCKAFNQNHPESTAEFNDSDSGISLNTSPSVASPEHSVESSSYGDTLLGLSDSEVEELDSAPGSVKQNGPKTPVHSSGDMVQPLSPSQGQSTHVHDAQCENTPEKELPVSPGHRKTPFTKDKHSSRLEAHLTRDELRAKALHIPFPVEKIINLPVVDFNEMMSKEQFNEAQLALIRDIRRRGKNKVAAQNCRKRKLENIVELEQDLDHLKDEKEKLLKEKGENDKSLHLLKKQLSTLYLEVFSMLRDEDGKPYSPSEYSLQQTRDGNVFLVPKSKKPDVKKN
T1 sequence (Q16236 whole entry): as the sequence (Q16236 whole entry, looked up) above
T1 sequence (Q14145 whole entry): as the sequence (Q14145 whole entry, looked up) above

Row | Structure (SMILES) | IC50 (Keap1/Nrf2 [1]) | Ki (Keap1/Nrf2 [1]) | inhibition [2] | inhibition [3] | IC50 (Keap1/Nrf2 [4]) | HMOX1 gene expression increase (active/not active) [5] | fold change (FC) [6] | fold change (FC) [7] | fold change (FC) [8] | fold change (FC) [9] | fold change (FC) [10] | fold change (FC) [11]
1 | COc1ccc(S(=O)(=O)N(CC(=O)O)c2cc(CCC(=O)N3CCOCC3)c(N(CC(=O)O)S(=O)(=O)c3ccc(OC)cc3)c3ccccc23)cc1 | 0.0069 µM | 0.002 µM | Active | Active | 0.087 µM | Active | – | – | – | – | – | –
2 | COc1ccc(-c2cc(N(CC(=O)O)S(=O)(=O)c3ccc(OC)cc3)c3ccccc3c2N(CC(=O)O)S(=O)(=O)c2ccc(OC)cc2)cc1 | 0.0131 µM | 0.0049 µM | Active | Active | 0.085 µM | Active | 8 | 8 | 8 | – | – | –
3 | COc1ccc(S(=O)(=O)N(CC(=O)O)c2cc(CCCN(C)Cc3ccccc3)c(N(CC(=O)O)S(=O)(=O)c3ccc(OC)cc3)c3ccccc23)cc1 | 0.0736 µM | 0.0329 µM | – | – | – | – | – | – | – | – | – | –
4 | COc1ccc(S(=O)(=O)N(CC(=O)O)c2cc(CCC(=O)NC(C)C)c(N(CC(=O)O)S(=O)(=O)c3ccc(OC)cc3)c3ccccc23)cc1 | 0.0126 µM | 0.0046 µM | – | – | 0.102 µM | – | – | – | – | – | – | –
5 | COc1ccc(S(=O)(=O)N(CC(=O)O)c2cc(-c3ccc(C#N)cc3)c(N(CC(=O)O)S(=O)(=O)c3ccc(OC)cc3)c3ccccc23)cc1 | 0.0092 µM | 0.0031 µM | inactive | inactive | 0.117 µM | inactive | – | – | – | – | – | –
6 | COc1ccc(S(=O)(=O)N(CC(=O)O)c2cc(CCC(N)=O)c(N(CC(=O)O)S(=O)(=O)c3ccc(OC)cc3)c3ccccc23)cc1 | 0.0117 µM | 0.0042 µM | – | – | 0.108 µM | – | – | – | – | – | – | –
7 | COc1ccc(S(=O)(=O)N(CC(=O)O)c2cc(CCCN3C(=O)c4ccccc4C3=O)c(N(CC(=O)O)S(=O)(=O)c3ccc(OC)cc3)c3ccccc23)cc1 | 0.0025 µM | < 0.0001 µM | Active | Active | 0.077 µM | Active | – | – | – | 3 | 3 | 3
8 | COc1ccc(S(=O)(=O)N(CC(=O)O)c2cc(Sc3ccccc3)c(N(CC(=O)O)S(=O)(=O)c3ccc(OC)cc3)c3ccccc23)cc1 | 0.0058 µM | 0.0015 µM | – | – | 0.085 µM | – | – | – | – | – | – | –
9 | COc1ccc(S(=O)(=O)N(CC(=O)O)c2cc(-c3ccc(N4C(=O)c5ccccc5C4=O)cc3)c(N(CC(=O)O)S(=O)(=O)c3ccc(OC)cc3)c3ccccc23)cc1 | 0.0071 µM | 0.0021 µM | Active | Active | 0.09 µM | Active | – | – | – | 3 | 3 | 3
10 | COc1ccc(S(=O)(=O)N(CC(=O)O)c2cc(-c3ccccc3)c(N(CC(=O)O)S(=O)(=O)c3ccc(OC)cc3)c3ccccc23)cc1 | 0.0077 µM | 0.0024 µM | – | – | 0.096 µM | – | – | – | – | – | – | –
11 | COc1ccc(S(=O)(=O)N(CC(N)=O)c2cc(CCC(=O)O)c(N(CC(N)=O)S(=O)(=O)c3ccc(OC)cc3)c3ccccc23)cc1 | 0.0227 µM | 0.0093 µM | – | – | 0.162 µM | – | – | – | – | – | – | –
